Patent US7060678B2, “Peptides comprising furanoid sugar amino acids for the treatment of cancer” (Dabur Research Foundation, priority 2003, dated 2006)
Like-named read-outs stand apart in the source and are kept apart here. Starred links: 1 amine or outer side, 2 acyl side, 3 side chain; linkers in the order of their positions; H or OH if unused. Non-standard residues stand in square brackets, D forms with d. Residues, ends and D or L forms follow the SMILES beside them. X2 = O=C([C@@H]1CC[C@H](CN[*:1])O1)[*:2]; X1 = O=C(C1CCC(CN[*:1])O1)[*:2]

Assays:
PA1 (human ovary) = test: MTT cytotoxicity assay, PA1 cells; assay type: cell-based; conditions: human, 48 hours
Source text: (§1) The following cell lines were used.

PTC (colon) = test: MTT cytotoxicity assay, PTC cells; assay type: cell-based, human; conditions: 48 hours
Source text: as §1

HeP-G2 (liver) = test: MTT cytotoxicity assay, HeP-G2 cells; assay type: cell-based, human; conditions: 48 hours
Source text: as §1

HeP-2 (larynx) = test: MTT cytotoxicity assay, HeP-2 cells; assay type: cell-based, human; conditions: 48 hours
Source text: as §1

[1] = test system: MiaPaCa.2 (human pancreas); test: MTT cytotoxicity assay, MiaPaCa.2 cells; assay type: cell-based; conditions: 48 hours
Source text: as §1

ECV-304 (endothelial) = conditions: ECV-304 cells, 48 hours, NA = Not Active
Source text: Although sterile phosphate buffered saline was used to prepare each stock solution for the testing described in the following example, other diluents may be used such as buffered saline, isotonic NaCl, Ringer's solution, water, distilled water, polyethylene glycol (neat or in water), Tween in water, dimethylsulfoxide up to 50% in water, propylene glycol (neat or in water), phosphate buffered saline, balanced salt solution, glycerol, and other conventional fluids that are suitable for parentral administration. To obtain a pH in the range of approximately 3.5 to 7.0, for each stock solution, the pH can be adjusted by using 1N HCl for lowering the pH or 1N NaOH for raising the pH, although other buffers such as citrate buffer, phosphate buffer and the like or other conventional agents for adjusting the pH can be used.
The MTT assay is based on the principle of uptake of MTT [3-[4,5-dimethylthiazol-2-yl]-2,5-diphenyl tetrazolium bromide], a tetrazolium salt, by the metabolically active cells where it is metabolized by active mitochondria into a blue colored formazan product which can be read spectrophotometrically. […] The formazan crystals formed inside the cells were dissolved with a detergent comprising of 10% Sodium dodecyl sulfate and 0.01 N HCl and optical density read on a multi-scan ELISA reader. The optical density was directly proportional to the number of proliferating and metabolically active cells. The following cell lines were used. PA1(human ovary), PTC (colon), HeP-2 (larynx), MiaPaCa.2 (human pancreas), KB (oral), ECV-304 (endothelial) and HeP-G2 (liver).

KB (oral) = test: MTT cytotoxicity assay, KB cells; assay type: cell-based, human; conditions: 48 hours
Source text: as §1

[2] = test system: human colon adenocarcinoma (PTC) xenografts; test: In vivo antitumour activity on primary tumor (colon) xenografted mice; parameters: species or system Balb/c athymic mice; conditions: PTC xenografts in nude mice; intravenously 0.5 mg/Kg. B. Wt twice a day; till day 21
Method: The antitumor activity of the peptide (SEQ ID NO: 12) was studied in human colon adenocarcinoma (PTC) xenografts in nude mice. PTC tumor xenografts were grown in Balb/c athymic mice by subcutaneous inoculation of a single cell suspension of PTC cells (15×10^6 cells/100 μL). The tumor bearing animals were divided into 2 groups of five animals each including one group comprising untreated control animals. Treatment with novel peptide was initiated when the average tumor volumes, as measured using a vernier caliper, were between 400–800 mm^3. Solution of SEQ ID NO 12 was prepared at a concentration of 100 μg/ml and intravenously administered to the assigned group of tumor bearing animals at a dose of 0.5 mg/Kg. B. Wt twice a day so that the total dose of 1 mg/Kg. B. Wt was administered to each animal. The treatment was continued for a period of 21 days.
The antitumor activity of the compounds was monitored by measuring tumor volumes every fourth day using the formula W*W*L*0.4 (W=smaller diameter, L=larger diameter). The percentage inhibition of tumor growth was calculated using the formula (1-tumor volume-treated/tumor volume-control)* 100.

Structure (SMILES)	Percent Cytotoxicity (PA1 (human ovary); 1 nM) [%]	Percent Cytotoxicity (PA1 (human ovary); 10 nM) [%]	Percent Cytotoxicity (PA1 (human ovary); 100 nM) [%]	Percent Cytotoxicity (PA1 (human ovary); 1 μM) [%]	Percent Cytotoxicity (PTC (colon); human, 1 nM) [%]	Percent Cytotoxicity (PTC (colon); human, 10 nM) [%]	Percent Cytotoxicity (PTC (colon); human, 100 nM) [%]	Percent Cytotoxicity (HeP-2 (larynx); human, 1 nM) [%]	Percent Cytotoxicity (HeP-2 (larynx); human, 10 nM) [%]	Percent Cytotoxicity (HeP-2 (larynx); human, 100 nM) [%]	Percent Cytotoxicity (HeP-2 (larynx); human, 1 μM) [%]	Percent Cytotoxicity ([1]; human, 1 nM) [%]	Percent Cytotoxicity ([1]; human, 10 nM) [%]	Percent Cytotoxicity ([1]; human, 100 nM) [%]	Percent Cytotoxicity ([1]; human, 1 μM) [%]	Percent Cytotoxicity (ECV-304 (endothelial); peptide 1 nM) [%]	Percent Cytotoxicity (ECV-304 (endothelial); peptide 10 nM) [%]	Percent Cytotoxicity (ECV-304 (endothelial); peptide 100 nM) [%]	Percent Cytotoxicity (ECV-304 (endothelial); peptide 1 μM) [%]	also measured
CSCC[C@H](N)C(=O)NC[C@H]1CC[C@@H](C(=O)N[C@@H](Cc2ccc(O)cc2)C(=O)N[C@@H](CC(C)C)C(=O)O)O1 [SEQ ID NO: 17, Met-Saa4-Tyr-Leu]	18.2 ± 1.1	17.8 ± 1.7	15.9 ± 0.6	6.0 ± 0.7	12.0 ± 1.7	11.9 ± 1.4	10.4 ± 0.6	33.6 ± 2.7	31.7 ± 3.2	29.0 ± 0.4	27.9 ± 2.9	23.0 ± 2.1	21.8 ± 1.9	17.0 ± 0.9	16.0 ± 1.4	16.4 ± 1.9	13.9 ± 0.5	11.9 ± 1.1		Percent Cytotoxicity (PTC (colon); human, 1 μM): 8.4 ± 1.0%; Percent Cytotoxicity (HeP-G2 (liver); human, 1 nM): 12.8 ± 0.6%; Percent Cytotoxicity (HeP-G2 (liver); human, 10 nM): 17.9 ± 1.4%; Percent Cytotoxicity (HeP-G2 (liver); human, 100 nM): 20.9 ± 1.4%; Percent Cytotoxicity (HeP-G2 (liver); human, 1 μM): 12.0 ± 0.7%
CSCC[C@H](NC(=O)[C@@H](N)CC(C)C)C(=O)NC[C@H]1CC[C@@H](C(=O)N[C@H](C(=O)N[C@@H](Cc2ccc(O)cc2)C(=O)N[C@@H](CC(C)C)C(=O)N[C@@H](CCCCN)C(=O)O)[C@@H](C)O)O1 [SEQ ID NO: 9, Leu-Met-Saa4-Thr-Tyr-Leu-Lys] (H-LM[X2]TYLK-OH)																12.8 ± 1.4	15.8 ± 1.1	10.4 ± 2.0	7.9 ± 0.4	Percent Cytotoxicity (PTC (colon); PTC cells, peptide 1 nM, NA = Not Active): 33.5 ± 2.9%; Percent Cytotoxicity (PTC (colon); PTC cells, peptide 10 nM, NA = Not Active): 31.9 ± 2.8%; Percent Cytotoxicity (PTC (colon); PTC cells, peptide 100 nM, NA = Not Active): 29.5 ± 2.7%; Percent Cytotoxicity (PTC (colon); PTC cells, peptide 1 μM, NA = Not Active): 26.0 ± 2.2%; Percent Cytotoxicity (HeP-G2 (liver); HeP-G2 cells, peptide 1 nM, NA = Not Active): 11.2 ± 1.1%; Percent Cytotoxicity (HeP-G2 (liver); HeP-G2 cells, peptide 10 nM, NA = Not Active): 10.7 ± 1.1%; Percent Cytotoxicity (HeP-2 (larynx); HeP-2 cells, peptide 1 nM, NA = Not Active): 20.9 ± 2.0%; Percent Cytotoxicity (HeP-2 (larynx); HeP-2 cells, peptide 10 nM, NA = Not Active): 21.0 ± 1.9%; Percent Cytotoxicity (HeP-2 (larynx); HeP-2 cells, peptide 100 nM, NA = Not Active): 18.8 ± 1.9%; Percent Cytotoxicity (HeP-2 (larynx); HeP-2 cells, peptide 1 μM, NA = Not Active): 14.6 ± 1.6%; Percent Cytotoxicity ([1]; MiaPaCa.2 cells, peptide 1 nM, NA = Not Active): 14.8 ± 2.9%; Percent Cytotoxicity ([1]; MiaPaCa.2 cells, peptide 10 nM, NA = Not Active): 12.9 ± 1.5%; Percent Cytotoxicity ([1]; MiaPaCa.2 cells, peptide 100 nM, NA = Not Active): 9.3 ± 1.1%; Percent Cytotoxicity ([1]; MiaPaCa.2 cells, peptide 1 μM, NA = Not Active): 5.9 ± 0.0%; Percent Cytotoxicity (KB (oral); KB cells, peptide 1 nM, NA = Not Active): 14.5 ± 1.8%; Percent Cytotoxicity (KB (oral); KB cells, peptide 10 nM, NA = Not Active): 12.5 ± 1.9%; Percent Cytotoxicity (KB (oral); KB cells, peptide 100 nM, NA = Not Active): 10.5 ± 1.2%
CSCC[C@H](NC(=O)[C@@H](N)CC(C)C)C(=O)N[C@@H](Cc1ccc(O)cc1)C(=O)NCC1CCC(C(=O)N[C@@H](Cc2ccc(O)cc2)C(=O)N[C@@H](CC(C)C)C(=O)N[C@@H](CCCCN)C(=O)O)O1 (stereo partly drawn) [SEQ ID NO: 12, Leu-Met-Tyr-Saa3-Tyr-Leu-Lys] (H-LMY[X1]YLK-OH)	20.2 ± 2.1	24.6 ± 2.7	39.3 ± 3.0	32.1 ± 2.0	12.7 ± 1.8	14.8 ± 1.9	10.8 ± 2.0	21.9 ± 2.9	39.3 ± 3.2	32.2 ± 1.9	28.9 ± 3.2	23.8 ± 3.2	30.6 ± 3.9	21.9 ± 0.2	13.9 ± 2.7	32.0 ± 3.9	36.9 ± 3.2	27.9 ± 2.9	22.2 ± 2.2	antitumor activity on PTC xenografts (tumor volume kinetics, FIG. 1) [2]: significant antitumor activity; Percent Cytotoxicity (KB (oral); human, 1 nM): 32.9 ± 4.3%; Percent Cytotoxicity (KB (oral); human, 10 nM): 37.4 ± 2.9%; Percent Cytotoxicity (KB (oral); human, 100 nM): 33.2 ± 0.4%; Percent Cytotoxicity (KB (oral); human, 1 μM): 19.9 ± 1.9%
